3 molecules from ChEMBL document CHEMBL1136465, “Phenolics with PPAR-gamma ligand-binding activity obtained from licorice (Glycyrrhiza uralensis roots) and ameliorative effects of glycyrin on genetically diabetic KK-A(y) mice” (2003) can be followed below.

What all share (type): functional
Assay [1] is filed under the species Mus musculus. Briefly: Blood glucose level of the diabetic KK-Ay mice on day 0 was measured.
For assay [2], the species on record is Mus musculus. Briefly: Blood glucose level of the diabetic KK-Ay mice on day 4 was measured.
Assay [3] is filed under the species Mus musculus. Briefly: Body weight of the fasted diabetic KK-Ay mice on day 10 was measured.
For assay [4], the species on record is Mus musculus. Briefly: Body weight of the non-fasted diabetic KK-Ay mice on day 0 was measured.
For assay [5], the species on record is Mus musculus. Briefly: Body weight of the non-fasted diabetic KK-Ay mice on day 4 was measured.
The species entered for assay [6] is Mus musculus. Briefly: Body weight of the non-fasted diabetic KK-Ay mice on day 7 was measured.
Assay [7] is filed under the species Mus musculus. Briefly: Average food intake of the diabetic KK-Ay mice was measured from total intake amount/days/number of mice.
The species entered for assay [8] is Mus musculus. Briefly: Average sample intake of the diabetic KK-Ay mice was measured as average food intake/average body weight of mice.

On to `COc1cc2oc(=O)c(-c3ccc(O)cc3O)cc2c(OC)c1CC=C(C)C` [GLYCYRIN], for which the results for the Blood glucose in the assay filed under Mus musculus [1] and in the assay listed under Mus musculus [2] were 474 mg/dL and 278 mg/dL, respectively. Moreover, the Body weight in the assay listed under Mus musculus [3] came out at 48.1 g; in the assay filed under Mus musculus [4], 54.1 g; in the assay listed under Mus musculus [5] it was 50.4 g; in the assay listed under Mus musculus [6] it was 51.9 g. The same molecule came in with an Average food intake in the assay filed under Mus musculus [7] of 5.34 g mouse-1 day-1. This molecule returned an Average sample intake in the assay filed under Mus musculus [8] of 102 mg/kg/day.

Turning to `COc1c(CC=C(C)C)c(O)cc2oc(=O)c3c4ccc(O)cc4oc3c12` [GLYCYROL], the Blood glucose in the assay listed under Mus musculus [1] came out at 427 mg/dL; in the assay listed under Mus musculus [2] it was 421 mg/dL. For the same molecule, the Body weight turned out to be 46.8 g in the assay filed under Mus musculus [3], 52.6 g in the assay filed under Mus musculus [4], 49.1 g in the assay listed under Mus musculus [5] and 50.3 g in the assay filed under Mus musculus [6]. Also, in the assay listed under Mus musculus [7], the Average food intake is given as 5.47 g mouse-1 day-1. Moreover, the Average sample intake in the assay filed under Mus musculus [8] is 108 mg/kg/day.

For the molecule `CCc1ccc(CCOc2ccc(CC3SC(=O)NC3=O)cc2)nc1` (centres undefined) [PIOGLITAZONE], the values for the Blood glucose in the assay filed under Mus musculus [1] and in the assay listed under Mus musculus [2] were 486 mg/dL and 191 mg/dL, respectively. Also, the Body weight in the assay listed under Mus musculus [3] came out at 52.5 g; in the assay filed under Mus musculus [4], 55.1 g; in the assay filed under Mus musculus [5], 53.6 g; in the assay filed under Mus musculus [6], 55.8 g. In the assay filed under Mus musculus [7], this molecule displayed an Average food intake of 6.34 g mouse-1 day-1. This molecule also showed an Average sample intake in the assay filed under Mus musculus [8] of 23 mg/kg/day.
